Measurements as given in US20190262347A1, “COMPOSITION COMPRISING COMBINATION OF EPICATECHIN AND ANTI-CANCER COMPOUND” (SPHAERA PHARMA PVT. LTD., priority 2016, published 2019).

Tested on: HCT116 induced xenograft
Assay: 21 days efficacy study in HCT116 induced xenograft model in mice
Type: in vivo
Details: 1004 5 mpk, epicatechin 30 mpk
Experimental: Anticancer potential of epicatechin in combination with a PI3K/mTOR inhibitor is evaluated against cancer xenograft model in immunocompromised mice. CD1 nude mice are dosed for a period of 21 days with vehicle control, PI3K/mTOR inhibitor and a combination of PI3K/mTORinhibitor and epicatechin. […] The results are presented at Table 2, Table 3 and FIGS. 1a and 1b.

SMILES: C[C@H]1COCCN1c1nc(Oc2ccc(C(=O)N(C)C)cc2F)nc(-c2ccc(N)nc2)n1 [Compound 1004, (S)-4-((4-(6-aminopyridin-3-yl)-6-(3-methylmorpholino)-1,3,5-triazin-2-yl)oxy)-3-fluoro-N,N-dimethylbenzamide]
- T/C % (Mean), Treated/Control on 21st day (CD1 nude mice, HCT116 xenograft, 21st day, oral): 29%
- TGI % (Mean), tumor growth inhibition (CD1 nude mice, HCT116 xenograft, dosed 21 days, oral): 80%
- Tumor weight (HCT116 xenograft in mice): 0.72 g
